Data as given in patent US5162320A, “1,4-bis(alkylamino)-2,3-diaza-anthracene-9,10-diones” (Boehringer Biochemia Robin S.p.A., priority 1989, dated 1992).
Where two headings read alike, the source gives them in different places.

Key:
[1] = system: human melanoma xenographt; assay: M.T.T. assay in vitro, human melanoma; format: cell-based
Experimental: (§1) The antitumor activity of compounds of the present invention was evaluated by "in vitro" M.T.T. assay (T. Mosmann, J. Immunol. Meth. 65 : 55-63, 1983) on human tumor cell lines. M.T.T. assay was chosen according to N.C.I. screening program for new anticancer drugs (Ad hoc review committee proceedings for N.C.I. "in vitro"--"in vivo" Disease oriented Screening project. N.I.H., Bethesda, Md. Dec.8-9, 1986).

[2] = system: human cervix epithelioid carcinoma cell line; assay: M.T.T. assay in vitro, human cervix epithelioid carcinoma; format: cell-based
Experimental: as §1
Against the same human cervix epithelioid carcinoma cell line the compounds (1) and (2) show ID50 of 1×10^-9 M and 2×10^-10 M, respectively.

[3] = human, in vivo; cited from earlier work
[4] = intraperitoneal, non-tumor bearing animals; cited from earlier work
[5] = system: human colon adenocarcinoma; assay: M.T.T. assay in vitro, human colon adenocarcinoma; format: cell-based; details: human colon adenocarcinoma xenographt, read-out: ID50 (the source's name)
Experimental: as §1

[6] = human melanoma xenographt, M.T.T. assay, read-out: ID50 (the source's name)
[7] = human cervix epithelioid carcinoma, in vitro, read-out: ID50 (the source's name)
[8] = human cervix epithelioid carcinoma

In the case of `O=C1c2ccccc2C(=O)c2c(NCCNCCO)ccc(NCCNCCO)c21` [ametantrone, 1,4-bis[(2-(2-hydroxyethylamino)ethyl)amino]anthracene-9,10-dione], the IC50 ([1]; Homo sapiens, read-out: ID50) is given as 20000 nM, the IC50 ([2]; Homo sapiens, read-out: ID50) is given as 50000 nM and the cardiotoxicity [3] is given as “some cardiotoxicity”. The delayed lethality [4] was “not observed”.
For `COc1cccc2c1C(=O)c1c(O)c3c(c(O)c1C2=O)C[C@@](O)(C(=O)CO)C[C@@H]3O[C@H]1C[C@H](N)[C@H](O)[C@H](C)O1` [doxorubicin], the cardiotoxicity [3] is given as “severe dose-related cardiotoxicity” and the toxic side effects [3] is given as “nausea, vomiting and alopecia”.
`Nc1nnc(NCCCO)c2c1C(=O)c1ccccc1C2=O` [Compound 4, 1-[N-(3-hydroxypropyl)amino]-4-amino-2,3-diaza-anthracene-9,10-dione] gave an IC50 [1, 6] of 1 nM.
`O=C1c2ccccc2C(=O)c2c(NCCCO)nnc(NCCCO)c21` [Compound 3, 1,4-bis[N-(3-hydroxypropyl)amino]-2,3-diaza-anthracene-9,10-dione] showed an IC50 [1, 6] of 2 nM.
Work on `O=C1c2c(O)ccc(O)c2C(=O)c2c(NCCNCCO)ccc(NCCNCCO)c21` [mitoxantrone, 5,8-dihydroxy-1,4-bis[(2-(2-hydroxyethylamino)ethyl)amino]anthracene-9,10-dione] yielded an IC50 [5] of 100 nM, an IC50 [1, 6] of 1 nM and an IC50 [2, 7] of 5 nM. For the same compound, the cardiotoxicity [3] was “some clinical cardiotoxicity”, the major hematological toxicities [3] was “leukopenia, neutropenia and bone marrow aplasia” and the toxic side effects [3] was “by far lower than those resulting from doxorubicin”. The delayed lethality [4] was “a delayed lethality”.
`CN(C)CCNc1nnc(N)c2c1C(=O)c1ccccc1C2=O` [Compound 2, 1-[N-(2-dimethylaminoethyl)amino]-4-amino-2,3-diaza-anthracene9,10-dione] showed an IC50 [5] of 1 nM, an IC50 [1, 6] of 0.1 nM and an IC50 [2, 7] of 0.2 nM.
`CN(C)CCNc1nnc(NCCN(C)C)c2c1C(=O)c1ccccc1C2=O` [Compound 1, 1,4-bis[N-(2-dimethylaminoethyl)amino]-2,3-diaza-anthracene-9,10-dione] showed an IC50 [5] of 10 nM, an IC50 [1, 6] of 1 nM and an IC50 [2, 7] of 1 nM.
In the case of `Nc1nnc(NCCNCCO)c2c1C(=O)c1ccccc1C2=O` [Compound 5, 1-[N-(2-(2-hydroxyethylamino)ethyl)amino]-4-amino-2,3-diaza-anthracene-9,10-dione], the “activity compared with ametantrone” value [2, 8] is reported as “definitely more active than ametantrone”, the “activity compared with mitoxantrone” value [2, 8] is reported as “as active as mitoxantrone” and the IC50 [2, 7] is reported as 3 nM.
Work on `OCCCNc1nnc(NCCCO)c2cc3ccccc3cc12` [1,4-bis[N-(3-hydroxypropyl)amino]-2,3-diaza-anthracene] yielded an IC50 [1, 6] of 500000 nM.
